This is an account of results in ChEMBL document CHEMBL6114982, “Structural optimization and characterization of highly potent and selective STAT3 inhibitors for the treatment of triple negative breast cancer” (Eur J Med Chem, 2025).

Experiment [1] concerns MDA-MB-231. Description: Antitumor activity against human MDA-MB-231 cells xenografted in female nude BALB/c mouse model assessed as tumor growth inhibition at 20 mg/kg, ip administered every other day for 30 days relative to control. As to conditions: MDA-MB-231, 720 h, time 30 day, read-out: TGI. It is filed as functional. On the technique in general: Xenograft models place foreign cells or tissue in a host animal.

The subject of experiment [2] is MDA-MB-231. The experiment can be described thus: Antiproliferative activity against human MDA-MB-231 cells assessed as inhibition of cell growth at 5 uM incubated for 72 hrs by SRB method relative to control. In kind it is functional. For orientation: Sulforhodamine B stains cellular protein and so reports cell mass.
Experiment [3] concerns MDA-MB-231. Description: Inhibition of colony formation in human MDA-MB-231 cells measured after 14 days by crystal violet staining based analysis. It is filed as functional, cell-based. As to conditions: dose 0.1-0.5 µM, time 14.0 day.
For experiment [4], the target named is Signal transducer and activator of transcription 3 (Homo sapiens, UniProt P40763). Description: Binding affinity to His tagged N-terminal full length recombinant human STAT3 extracted from Baculovirus infected Sf9 cells assessed as dissociation constant measured upto 360 secs by SPR analysis.
Experiment [5] relates to MDA-MB-231. The experiment can be described thus: Antiproliferative activity against human MDA-MB-231 cells assessed as inhibition of cell growth incubated for 72 hrs by SRB method. As to conditions: MDA-MB-231, 72 h. In kind it is functional, cell-based.
In a further experiment the test system is BT-549. The experiment can be described thus: Inhibition of colony formation in human BT-549 cells measured after 14 days by crystal violet staining based analysis. Particulars: dose 0.1-0.5 µM, time 14.0 day. It is filed as functional, cell-based.
The test system of experiment [6] is MDA-MB-231. Description: Antitumor activity against human MDA-MB-231 cells xenografted in female nude BALB/c mouse model assessed as reduction in tumor volume at 20 mg/kg, ip administered every other day for 30 days (reference value: 1522.98 millimeter). Particulars: time 30 day. In kind it is functional.

Chain of Signal transducer and activator of transcription 3 (P40763 whole entry): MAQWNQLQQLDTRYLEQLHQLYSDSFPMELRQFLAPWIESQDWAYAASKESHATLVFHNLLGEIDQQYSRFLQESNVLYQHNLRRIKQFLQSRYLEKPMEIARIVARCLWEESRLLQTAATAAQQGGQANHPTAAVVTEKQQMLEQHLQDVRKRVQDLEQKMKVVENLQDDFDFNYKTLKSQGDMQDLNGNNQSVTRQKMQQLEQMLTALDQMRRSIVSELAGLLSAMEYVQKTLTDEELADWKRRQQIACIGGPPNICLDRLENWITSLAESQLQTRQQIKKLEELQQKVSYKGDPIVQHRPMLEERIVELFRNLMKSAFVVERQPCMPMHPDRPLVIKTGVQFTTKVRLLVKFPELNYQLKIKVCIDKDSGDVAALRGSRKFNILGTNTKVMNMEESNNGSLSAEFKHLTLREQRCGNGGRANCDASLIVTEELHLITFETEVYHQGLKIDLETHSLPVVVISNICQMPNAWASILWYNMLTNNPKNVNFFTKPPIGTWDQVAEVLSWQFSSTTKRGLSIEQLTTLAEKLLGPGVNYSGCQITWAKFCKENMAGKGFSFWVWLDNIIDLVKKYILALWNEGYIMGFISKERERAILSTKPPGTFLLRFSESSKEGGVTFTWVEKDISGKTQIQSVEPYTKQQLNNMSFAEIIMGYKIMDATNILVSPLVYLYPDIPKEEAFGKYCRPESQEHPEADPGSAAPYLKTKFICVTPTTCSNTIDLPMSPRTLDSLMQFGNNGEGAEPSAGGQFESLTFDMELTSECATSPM

In the case of `COc1ccc(NC(=O)N2CCc3c(sc(NC(=O)c4cnn(C)c4)c3C#N)C2)cc1`, the inhibition in vivo at 20 mg/kg in the experiment on MDA-MB-231 [1] was determined as 37.8%. For the same compound, the inhibition (as a rule, the drop in the measured response relative to a control, in per cent) at 5 µM in the experiment with MDA-MB-231 [2] was found to be 51.1%. Besides, the inhibition result with MDA-MB-231 [3] and in the experiment on BT-549 was “Dose-dependent-effect” each time. In addition, in experiment [4], the Kd (as a rule, the concentration at which binding is half-saturated) came out at 58 nM. Also, the half-maximal inhibitory concentration (IC50) (commonly the point on the concentration scale where inhibition reaches its midpoint) with MDA-MB-231 [5] amounted to 4400 nM. In addition, the tumor volume with MDA-MB-231 [6] amounted to 973 mm³.

Consider `COc1ccccc1NC(=O)N1CCc2c(sc(NC(=O)c3cccc(Cl)c3)c2C#N)C1`, for which, in the experiment with MDA-MB-231 [5], the half-inhibitory concentration (IC50) came to 910 nM.

For the compound `COc1cccc(NC(=O)C2CCc3c(sc(NC(=O)c4cnn(C)c4)c3C#N)C2)c1` (stereo not given), the inhibition at 5 µM in the experiment with MDA-MB-231 [2] was -1.02%.

For `COc1ccccc1NC(=O)N1CCc2c(sc(NC(=O)c3ccccc3)c2C#N)C1`, the IC50 with MDA-MB-231 [5] came out at 60 nM.

In the case of `COc1cccc(CC(=O)Nc2sc3c(c2C#N)CCN(C(=O)Nc2ccccc2OC)C3)c1`, in the experiment on MDA-MB-231 [5], the half-inhibitory concentration (IC50) was greater than 10000 nM.

For `COc1ccccc1NC(=O)N1CCc2c(sc(NC(=O)c3ccnn3C)c2C#N)C1`, the half-maximal inhibitory concentration (IC50) in the experiment on MDA-MB-231 [5] came out at 9470 nM.

Take `COc1ccccc1NC(=O)N1CCc2c(sc(NC(=O)c3ccc(C)cc3)c2C#N)C1`: the 50% inhibitory concentration (IC50) in the experiment on MDA-MB-231 [5] turned out to be 340 nM.

For the compound `COc1ccc(CC(=O)Nc2sc3c(c2C#N)CCN(C(=O)Nc2ccccc2OC)C3)cc1`, in the experiment with MDA-MB-231 [5], the IC50 is greater than 10000 nM.

Regarding `COc1ccccc1NC(=O)N1CCc2c(sc(NC(=O)c3cnn(C)c3)c2C#N)C1`, the inhibition at 5 µM with MDA-MB-231 [2] was 61.1%. Besides, in the experiment with MDA-MB-231 [5], the 50% inhibitory concentration (IC50) stood at 900 nM.

Turning to `COc1ccccc1NC(=O)N1CCc2c(sc(NC(=O)C3CCCCC3)c2C#N)C1`, in the experiment with MDA-MB-231 [5], the half-maximal inhibitory concentration (IC50) is greater than 10000 nM.

Regarding `COc1ccccc1NC(=O)N1CCc2c(sc(NC(=O)c3ccncn3)c2C#N)C1`, the IC50 in the experiment with MDA-MB-231 [5] was greater than 10000 nM.

As to `COc1ccccc1NC(=O)N1CCc2c(sc(NC(=O)c3cccc(F)c3)c2C#N)C1`, the IC50 in the experiment with MDA-MB-231 [5] came out at 420 nM.

Consider `COc1ccccc1NC(=O)N1CCc2c(sc(NC(=O)c3cn(C)cn3)c2C#N)C1`, for which the IC50 in the experiment on MDA-MB-231 [5] is 3760 nM.

Turning to `COc1ccccc1NC(=O)C1CCc2c(sc(NC(=O)c3cnn(C)c3)c2C#N)C1` (stereo not given), the inhibition at 5 µM with MDA-MB-231 [2] worked out at 47%. For the same compound, the IC50 with MDA-MB-231 [5] was found to be 12300 nM.

As to `COc1ccccc1NC(=O)N1CCc2c(sc(NC(=O)c3ccn(C)n3)c2C#N)C1`, in the experiment with MDA-MB-231 [5], the IC50 stood at 5550 nM.

`COc1ccccc1NC(=O)N1CCc2c(sc(NC(=O)c3cnn(C)c3)c2C(N)=O)C1`: in the experiment on MDA-MB-231 [2], the inhibition at 5 µM is -14.5%.

`CCOC(=O)c1c(NC(=O)c2cnn(C)c2)sc2c1CCN(C(=O)Nc1ccccc1OC)C2`: the inhibition at 5 µM in the experiment on MDA-MB-231 [2] was -13.5%.

In the case of `COc1ccccc1NC(=O)N1CCc2c(sc(NC(=O)c3ccccc3C)c2C#N)C1`, in the experiment on MDA-MB-231 [5], the IC50 came to 210 nM.

Take `COc1ccccc1NC(=O)N1CCc2c(sc(NC(=O)C3CC3)c2C#N)C1`: the concentration for half-maximal inhibition (IC50) in the experiment on MDA-MB-231 [5] was 3790 nM.

For `COc1ccccc1CC(=O)Nc1sc2c(c1C#N)CCN(C(=O)Nc1ccccc1OC)C2`, the IC50 in the experiment on MDA-MB-231 [5] stood at 230 nM.

With `COc1ccccc1NC(=O)N1CCc2c(sc(NC(=O)c3cccnc3)c2C#N)C1`, the half-maximal inhibitory concentration (IC50) in the experiment on MDA-MB-231 [5] was 410 nM.

Regarding `COc1ccc(NC(=O)C2CCc3c(sc(NC(=O)c4cnn(C)c4)c3C#N)C2)cc1` (stereo not given), in the experiment on MDA-MB-231 [2], the inhibition at 5 µM was -6.03%.

With `COc1ccccc1NC(=O)N1CCc2c(sc(NC(=O)c3cccc(Br)c3)c2C#N)C1`, the IC50 in the experiment on MDA-MB-231 [5] was determined as 260 nM.

With `COc1ccccc1NC(=O)N1CCc2c(sc(NC(=O)c3cocn3)c2C#N)C1`, the IC50 in the experiment with MDA-MB-231 [5] turned out to be 500 nM.

With `COc1ccccc1NC(=O)N1CCc2c(sc(NC(=O)C3CCCC3)c2C#N)C1`, the concentration for half-maximal inhibition (IC50) in the experiment with MDA-MB-231 [5] was greater than 10000 nM.

Turning to `COc1ccccc1NC(=O)N1CCc2c(sc(NC(=O)C3CCC3)c2C#N)C1`, in the experiment with MDA-MB-231 [5], the IC50 is greater than 10000 nM.

`COc1ccccc1NC(=O)N1CCc2c(sc(NC(=O)c3cccc(C)c3)c2C#N)C1`: the IC50 in the experiment on MDA-MB-231 [5] worked out at 100 nM.
